Measurements as given in US20120225852A1, “USE OF STEROID COMPOUNDS” (priority 2009, published 2012).

Experiments:
[1] = tested on: Draining lymph node cells from mice induced to develop EAE; assay: Ex vivo cytokine secretion of draining lymph node cells to MOG35-55, mice treated from EAE onset; type: in vivo, C57BL/6 mice; details: treatment from EAE onset
Experimental: (§1) Tests were also carried out to discover whether DHEA and its spiro-analogs were protective after the onset of experimental autoimmune encephalomyelitis (EAE). For these tests, acute EAE was induced in C57BL/6 mice, as previously described. […] Mice were monitored daily in a blinded fashion for clinical symptoms (paralysis). Tissues (brain, spinal cord, DLNs) were collected in order to perform histological evaluation (staining with H&E on brain and spinal cord sections) and ex vivo cultures for measurement of T cell responses and cytokine release.
Also tested were the cytokine secretion of lymphoid cells (T cells) to MOG35-55 peptide from the mice that had been induced to develop EAE.

[2] = tested on: purified CD4+ T cells from unprimed BALB/c mice; assay: Purified CD4+ T cells stimulated with α-CD3/α-CD28; type: cell-based; details: non antigen-specific stimulation; FIG. 3
Excerpt: (§2) The decreased proliferative response of CD4^+ T cells was not due to increased cell death as evident by similar numbers of CD4^+ 7AAD^− cells in all cultures after flow-cytometric analysis (FIG. 4).

[3] = tested on: ongoing EAE in recipient mice; assay: Adoptive transfer of DLN cells from treated EAE donors into recipients with ongoing EAE; type: in vivo
Excerpt: The donor DLN cells were obtained on day 17, which is the peak of disease for control mice. This protection was observed until day 28-30 when the mice were euthanized.

[4] = tested on: Naive CD4+ T cells; assay: Naive CD4+ T cells under Th17 cell polarizing conditions; type: cell-based
[5] = tested on: Draining lymph node cells from mice induced to develop EAE; assay: Immune responses of mice with established EAE treated from day 13 (DLN cells to MOG35-55, cell subsets); type: in vivo, C57BL/6 mice
Excerpt: (§3) Acute EAE was induced in C57BL/6 mice by immunizing the animals against the pathogenic myelin oligodendrocyte glycoprotein (MOG) peptide (amino acids 35-55). Mice were left untreated until disease symptoms were apparent (score 1-2) at around day 12. […] Mice were monitored daily in a blinded fashion for clinical symptoms (paralysis). Tissues (brain, spinal cord, DLNs) were collected in order to perform histological evaluation (staining with H&E on brain and spinal cord sections) and ex vivo cultures for measurement of T cell responses and cytokine release.

[6] = tested on: ongoing EAE in recipient mice; assay: Adoptive transfer of CD4+ T cells from treated EAE donors into recipients with ongoing EAE; type: in vivo
[7] = tested on: MOG peptide-induced experimental autoimmune encephalomyelitis (EAE); assay: MOG peptide-induced EAE, treatment from the day of EAE induction; type: in vivo, C57BL/6 mice
Excerpt: EAE is an autoimmune condition of the central nervous system (CNS) and results from infiltration of the central nervous system by destructive autoreactive T lymphocytes and subsequent demyelination and axonal and neuronal degeneration.
(§4) Acute EAE was induced in C57BL/6 mice by immunizing them against the pathogenic myelin oligodendrocyte glycoprotein (MOG) peptide (amino acids 35-55). […] Mice were monitored daily in a blinded fashion for clinical symptoms (paralysis). Tissues (brain, spinal cord, DLNs) were collected in order to perform histological evaluation (staining with H&E on brain and spinal cord sections) and ex vivo cultures for measurement of T cell responses and cytokine release.

[8] = tested on: Draining lymph node cells from mice induced to develop EAE; assay: Ex vivo response of draining lymph node cells to MOG35-55, mice treated from EAE induction; type: in vivo, C57BL/6 mice; details: treatment from EAE induction
Excerpt: as §4
Also tested were the proliferative response and cytokine secretion of lymphoid cells (T cells) to MOG35-55 peptide from the mice that had been induced to develop EAE. […] In addition, the secretion of the inflammatory cytokine IL-17 was increased (FIG. 9d), but its absolute increase was extremely low in comparison to the IFN-γ increase.

[9] = tested on: EAE in C57BL/6 Rag−/− recipients; assay: Adoptive transfer of CD4+ T cells from treated EAE donors into C57BL/6 Rag-/- recipients; type: in vivo, C57BL/6 Rag−/− mice
[10] = tested on: Lymph node (LN) cells from unprimed DO11.10 TCR Tg mice; assay: OVA-stimulated lymph node cell culture, T cell proliferation; type: cell-based
[11] = tested on: experimental autoimmune encephalomyelitis (EAE); assay: MOG peptide-induced EAE, treatment from the day of EAE onset; type: in vivo, C57BL/6 mice; details: 2 mg/mouse i.p. daily from EAE onset until day 26
Experimental: as §1

[12] = tested on: naïve CD4+ T cells; assay: Naive CD4+ T cells under Treg cell generating conditions; type: cell-based
[13] = tested on: established MOG peptide-induced EAE; assay: Established MOG peptide-induced EAE, treatment from day 13; type: in vivo, C57BL/6 mice
Excerpt: as §3

[14] = tested on: purified CD4+ T cells from unprimed DO11.10 TCR Tg mice; assay: Purified CD4+ T cells with mitomycin C-treated splenocytes and OVA peptide 323-339; type: cell-based; details: OVA peptide 323-339; FIG. 2
Excerpt: as §2

[15] = 2 mg/mouse i.p. daily from EAE induction, in comparison to the control, FIG. 7

SMILES: C[C@]12CC[C@H](O)CC1=CC[C@@H]1[C@@H]2CC[C@]2(C)C(=O)CC[C@@H]12 [DHEA, dehydroepiandrosterone]
- amounts of IL-10 produced ([1]; FIG. 13a): greatly increased
- secretion of IFN-γ ([1]; FIG. 13b): substantially decreased
- secretion of IL-17 ([1]; FIG. 13c): substantially decreased
- effect on α-CD3/α-CD28 stimulated CD4+ T cells [2]: same suppressive effect
- recovery of recipients ([3]; DLN cell transfer, vs PBS-treated donors, FIG. 24): rapid recovery
- mean maximum disease score ([3]; DLN cell transfer, vs PBS-treated donors, FIG. 25): significant reduction
- EAE development in recipients ([3]; DLN cells of donors treated days 12-17, vs DLN cells from PBS-treated donors, FIG. 24): confer suppression
- ex vivo proliferation to MOG35-55 ([3]; DLN cells of recipients, FIG. 26a): significantly decreased
- levels of supernatant IFN-γ ([3]; DLN cells of recipients, FIG. 26b): decreased levels
- levels of supernatant IL-17 ([3]; DLN cells of recipients, FIG. 26c): decreased levels
- recruitment of CD11c+ dendritic cells ([3]; draining lymph nodes of recipients, FIG. 27a): substantially decreased
- recruitment of IL-17 secreting T cells ([3]; draining lymph nodes of recipients, FIG. 27b): substantially decreased
- recruitment of CD4+ Foxp3+ regulatory T cells ([3]; draining lymph nodes of recipients, FIG. 27c): increased
- number of CD4+ IL-10-secreting T cells ([4]; among Th17 differentiating cells, 4 days, FIG. 37): significant increase
- number of CD4+ IL-17-secreting T cells ([4]; and rIL-6, 4 days, vs RPMI, FIG. 36): increase
- pathogenic immune response and symptoms ([5]; overall conclusion, mice with ongoing EAE): significantly suppressed
- proliferation to MOG35-55 peptide ([5]; treatment from day 13, FIG. 19a): significantly decreased
- amounts of IFN-γ produced ([5]; treatment from day 13, FIG. 19b): substantially decreased
- amounts of IL-17 produced ([5]; treatment from day 13, FIG. 19c): substantially decreased
- IL-10+ Treg cells ([5]; treatment from day 13, FIG. 20): significantly increased
- secretion of IL-10 ([5]; treatment from day 13, FIG. 19d): increased
- mean maximum EAE score ([6]; CD4+ T cell transfer into recipients with ongoing EAE, FIGS. 28 and 29): significant decrease
- proliferation to MOG35-55 ex vivo ([6]; DLN cells and splenocytes of recipients, FIG. 30): significantly decreased
- degree of paralysis ([7]; 2 mg/mouse i.p. daily from EAE induction until day 26, vs PBS): decreased
- clinical course ([7]; 2 mg/mouse i.p. daily from EAE induction until day 26, FIG. 6): improvement
- mean maximum score ([7]; 2 mg/mouse i.p. daily from EAE induction until day 26, FIG. 7): decrease
- incidence of disease [7, 15]: low incidence
- onset of disease [7, 15]: delayed onset
- inflammation in the spinal cord ([7]; 2 mg/mouse i.p. daily from EAE induction, H&E, FIG. 8): decreased inflammation
- protection against MOG peptide-induced EAE ([7]; overall conclusion, treatment from EAE induction): conferred protection
- pathogenic immune response ([8]; overall conclusion): significantly suppressed
- proliferation to MOG35-55 peptide ([8]; FIG. 9a): significantly decreased
- amounts of IFN-γ produced ([8]; FIG. 9b): substantially increased
- amounts of IL-10 produced ([8]; FIG. 9c): substantially increased
- secretion of IL-17 ([8]; absolute increase extremely low compared to IFN-γ, FIG. 9d): increased
- ex vivo proliferation to MOG35-55 ([9]; DLN cells of Rag−/− recipients, FIG. 33a): substantially decreased
- production of IFN-γ ([9]; DLN cells of Rag−/− recipients, FIG. 33b): decreased production
- production of IL-17 ([9]; DLN cells of Rag−/− recipients, FIG. 33c): decreased production
- EAE scores induced in recipients ([9]; after pertussis toxin injections, FIGS. 31 and 32): very low EAE scores
- proliferation of the T cells that respond to the antigen ([10]; LN cells stimulated with OVA, vs control RPMI, FIG. 1): significantly decreased
- effect on T cell responses in general ([10]; overall conclusion of Example 1 (FIGS. 1-4)): immunosuppressive effect
- degree of paralysis [11]: decreased
- clinical course ([11]; FIG. 11): improvement/reversal
- mean maximum score ([11]; FIG. 12): decrease
- proliferation ([12]; Treg cell generating conditions, 5 days, FIG. 39): increased
- number of Foxp3+ Treg cells ([12]; rIL-2, with or even without rTGF-β1, 5 days, FIG. 38): significant increase
- clinical course ([13]; 2 mg/mouse i.p. daily from day 13, FIG. 16): significant improvement
- mean maximum score ([13]; 2 mg/mouse i.p. daily from day 13, FIG. 17): decrease
- inflammation in the spinal cord ([13]; 2 mg/mouse i.p. daily from day 13, FIG. 18): decreased inflammation
- degree of paralysis ([13]; 2 mg/mouse i.p. daily from day 13 until day 26-28): significantly decreased
- ongoing MOG peptide-induced EAE ([13]; overall conclusion, treatment from day 13): suppressed
- proliferation [14]: significantly decreased
- secretion of IFN-γ [14]: significantly decreased
- secretion of IL-2 [14]: significantly decreased
